Reference: article PMC8752837, “Structural basis of BAK activation in mitochondrial apoptosis initiation” (Nature Communications, 2022)
Residue numbers refer to the chain shown, from its start.

How the values were obtained:
[1] = system: BCL2allKO HCT116 cells reconstituted with Dox-inducible mC-BAK; test: Dox-induced cell death by IncuCyte imaging of SYTOX Green uptake (autoactivation); format: cell-based, human; conditions: qVD 40 µM
From the text: For mammalian cell culture experiments, we cloned the full length human BAK cDNA into pCR 2.1 TOPO vector, mutated BAK as needed, and PCR amplified the BAK gene for cloning into the BamHI and NotI sites of pRETROX mCherry vector for retroviral transduction. Amplification and mutagenesis primers are included in Supplementary Table 4. To test direct BAK activation and BAK autoactivation in cells, we produced cells stably expressing mCherry-human BAK (mC-BAK) ± human BID (BID) on a genetic background devoid of the entire BCL-2 family repertoire (all 17 BCL-2 genes), BCL2allKO HCT116, as described by the Xu Luo laboratory. […] To enrich for populations of cells that express mC-BAK, we treated cells with low Dox dose (25 ng/mL) and fluorescence-activated cell sorted (FACS) the mCherry positive cells. […]
We seeded cells in 24-well (100,000 cells/well), 96-well (15,000 cells/well), or 384-well (10,000 cells/well) plates coated with 10 µg/mL fibronectin. After ≥24 h of attachment and recovery, we induced cell death with Dox (up to 1000 ng/mL) and monitored SYTOX Green (25 nM) uptake by Incucyte imaging. […] We monitored Incucyte imaging for up to 48 h, followed by endpoint FACS analysis to measure the extent of cell death based on SYTOX Green positive cells on FACSCalibur systems (BD Biosciences). As expected, cells with low mCherry fluorescence were refractory to cell death.

Human BAK-∆TM-His6 (BAK) = target: T1, Human BAK-∆TM-His6 (BAK) (Homo sapiens, UniProt Q16611); test: Liposome permeabilization assay (ANTS/DPX dye release from LUVs): activation of WT BAK by BH3 peptides; format: biochemical; conditions: 50 nM BAK; EC50 from AUC vs peptide dose, data in Supplementary Figure 7c; 37 °C, 90 min; read-out: Liposome permeabilization EC50
T1 construct: C-terminus truncated recombinant human BAK containing C-terminal 6× histidine tag (MEAS-BAK); made in house; host or cells: E. coli T7 Express pLac I/Y
T1 sequence (Q16611 1-186 limits assumed): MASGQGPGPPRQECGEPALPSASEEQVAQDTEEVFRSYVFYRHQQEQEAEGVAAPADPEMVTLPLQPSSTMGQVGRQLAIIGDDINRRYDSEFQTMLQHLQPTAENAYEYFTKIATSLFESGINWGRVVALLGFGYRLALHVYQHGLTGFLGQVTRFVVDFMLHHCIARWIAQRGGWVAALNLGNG
Procedure: We performed liposome permeabilization assays as previously described[43]–[46]. […] We mixed the lipid film in ANTS/DPX solution by vortexing and sonication (~15 min) followed by extrusion through polycarbonate membrane of 2 μm pore size (Avanti Polar lipids) to generate homogenous large unilamellar vesicles (LUVs). We separated LUVs from free ANTS/DPX by S500 size exclusion chromatography and stored them at 4 °C in the dark. We prepared peptide and protein dilutions in 96-well black flat bottom plates (Costar) kept on ice. […] We quantified liposome permabilization by integrating area under curve (AUC) of normalized traces based on the Simpson’s equation, and analyzed that data in Excel and GraphPad Prism. AUC measurements reflect the kinetic and extent of liposome permeabilization and provide quantitative means for comparison between different experimental conditions (e.g., BAK mutants with gross or partial variation in activity).

I81R(3) BAK = target: T2, I81R(3) BAK (Homo sapiens, UniProt Q16611, I81R); test: Liposome permeabilization assay: BH3 peptide activation of I81R(3) BAK receptor; format: biochemical; conditions: 200 nM protein receptor; rebuttal, earlier Figure 7c; read-out: EC50 in liposome permeabilization upon direct activation of I81R BAK
T2 construct: C-terminus truncated recombinant human BAK containing C-terminal 6× histidine tag (MEAS-BAK); made in house; host or cells: E. coli T7 Express pLac I/Y
T2 sequence (Q16611 1-186 I81R limits assumed): T1 sequence (Q16611 1-186 limits assumed) with I81R
Procedure: We next compared activation of mutant BAK receptors by WT BID BH3 and WT BAK BH3 peptide ligands. At concentrations above 1 µM, both peptide ligands would activate WT or V74A(1) BAK (Supplementary Figs. 3e, 4d, e, and Supplementary Table 1).
We performed liposome permeabilization assays as previously described[43]–[46]. […] (nickel salt) [DGS NTA(Ni), 2.5 μM final concentration in each assay] (Avanti Polar Lipids). We prepared 12.5 mM fluorophore; 8-aminonaphthalene-1, 3, 6-trisulfonic acid, disodium salt (ANTS) and 45 mM quencher; p-xylene-bis-pyridiniumbromide (DPX) in LUV buffer (10 mM HEPES pH 6.8, 200 mM KCl and 5 mM MgCl2). We mixed the lipid film in ANTS/DPX solution by vortexing and sonication (~15 min) followed by extrusion through polycarbonate membrane of 2 μm pore size (Avanti Polar lipids) to generate homogenous large unilamellar vesicles (LUVs). We separated LUVs from free ANTS/DPX by S500 size exclusion chromatography and stored them at 4 °C in the dark. We prepared peptide and protein dilutions in 96-well black flat bottom plates (Costar) kept on ice. ANTS release from permeabilized liposomes causes an increase in fluorescence, which we monitored at 37 °C for 90 min using a CLARIOSTAR microplate reader (BMG Labtech) set at excitation and emission wavelengths of 360 and 530 nm, respectively. We normalized the data relative to maximum and minimum fluorescence induced by 3% CHAPS and buffer controls, respectively. We quantified liposome permabilization by integrating area under curve (AUC) of normalized traces based on the Simpson’s equation, and analyzed that data in Excel and GraphPad Prism. AUC measurements reflect the kinetic and extent of liposome permeabilization and provide quantitative means for comparison between different experimental conditions (e.g., BAK mutants with gross or partial variation in activity). Variability in permeabilization of different liposomes is common and our analyses compare among conditions investigated with the same liposomes. […]

I81R BAK = target: T3, I81R BAK (Homo sapiens, UniProt Q16611, I81R); test: Isothermal titration calorimetry with mutant BAK; format: binding; conditions: rebuttal, earlier Figures 7c, S10d
T3 construct: To generate tevBAK (residues 22–186), we cleaved off the histidine tag with TEV protease; His tag (vector pNIC28-Bsa4) (N, cleaved yes); made in house; host or cells: E. coli T7 Express pLac I/Y
T3 sequence (Q16611 22-186 I81R): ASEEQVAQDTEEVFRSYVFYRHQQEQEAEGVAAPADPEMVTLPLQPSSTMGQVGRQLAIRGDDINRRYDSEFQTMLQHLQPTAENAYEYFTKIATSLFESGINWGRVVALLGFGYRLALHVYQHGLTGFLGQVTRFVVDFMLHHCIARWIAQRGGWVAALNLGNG
Procedure: Protein samples were exchanged into 20 mM HEPES, 100 mM NaCl and 1 mM TCEP prior to the experiment. Titrations were performed by first injecting 0.5 μl of 250 or 500 µM BID BH3 peptides into a solution of 20 or 50 µM BAK followed by additional 2 μl injections. […] Results were analyzed using Origin software (OriginLab) provided by MicroCal. Binding constants (KD) and thermodynamic parameters were calculated from the average of two or three individual titrations by fitting the data to a single site binding model using a nonlinear least-squares fitting algorithm.

MEAS-BAK-His6 = target: T4, MEAS-BAK-His6 (Homo sapiens, UniProt Q16611); test: Surface plasmon resonance; format: binding; conditions: 20 °C; MEAS-BAK-His6 captured on Ni-NTA HisCap chip; three-fold peptide dilution series injected in triplicate; 1:1 interaction model; read-out: SPR KD
T4 construct: C-terminus truncated recombinant human BAK containing C-terminal 6× histidine tag (MEAS-BAK); made in house; host or cells: E. coli T7 Express pLac I/Y
T4 sequence (Q16611 1-186 limits assumed): T1 sequence (Q16611 1-186 limits assumed)
Procedure: We conducted SPR experiments at 20 °C using a Pioneer FE optical biosensor (ForteBio) amd histidine-tagged MEAS-BAK-His6 immobilized on polycarboxylate hydrogel-coated gold chips preimmobilized with nitrilotriacetic acid (HisCap chips; ForteBio). We primed the chip in chelating buffer (10 mM HEPES pH 7.4, 150 mM NaCl, 50 µM EDTA, 0.005% Tween20) and preconditioned it at 10 µL/min with three 60 s injections of wash buffer (10 mM HEPES pH 8.3, 150 mM NaCl, 350 mM EDTA, 0.05% Tween20) and one 60 s injection of chelating buffer before charging with a 60 s injection of 500 µM NiCl2 in chelating buffer. After priming into binding buffer (20 mM HEPES pH 8.0, 200 mM NaCl, 1 mM TCEP, 0.01% Tween20), we injected BAK to achieve ~500 RU of captured protein. As reference cell, we charged one flow cell on the chip with Ni^2+ without adding protein. […] We included a series of buffer-only (blank) injections throughout the experiment to account for instrumental noise. […] We processed, double-referenced, solvent corrected, and analyzed the data using the software package Qdat (version 4.3.1.2, ForteBio). We determined kinetic rate constants and affinities by fitting the data to a 1:1 interaction model.

SMILES	effect on cell death [1]	EC50 (Human BAK-∆TM-His6 (BAK)) [nM]	EC50 (I81R(3) BAK) [nM]	Kd (I81R BAK) [nM]	Kd (MEAS-BAK-His6) [nM]
CC(C)[C@H](NC(=O)c1ccc2ccccc2n1)C(=O)N[C@@H](CC(=O)O)C(=O)COc1c(F)cccc1F [qVD, reference compound]	blocked cell death				
CC[C@H](C)[C@H](NC(=O)[C@H](CC(N)=O)NC(=O)[C@H](CCCNC(=N)N)NC(=O)[C@@H](NC(=O)[C@@H](NC(=O)[C@H](CC(=O)O)NC(=O)[C@H](CCC(=O)O)NC(C)=O)[C@@H](C)CC)[C@@H](C)CC)C(=O)N[C@@H](C)C(=O)N[C@@H](CCCNC(=N)N)C(=O)N[C@@H](Cc1c[nH]cn1)C(=O)N[C@@H](CC(C)C)C(=O)N[C@@H](C)C(=O)N[C@@H](CCC(N)=O)C(=O)N[C@@H](CCSC)C(=O)NCC(=O)N[C@@H](CC(=O)O)C(=O)N[C@@H](CO)C(=O)N[C@@H](CCSC)C(=O)N[C@@H](CC(=O)O)C(=O)N[C@@H](CCCNC(=N)N)C(=O)N[C@@H](CO)C(=O)N[C@@H](Cc1c[nH]c2ccccc12)C(N)=O [M(3)W(5)]		79 ± 49	~5000	1340	506 ± 1
